target: PRMT5-MEP50 enzyme complex (Homo sapiens (Human), UniProt O14744); test: PRMT5 enzyme activity in vitro assay (methylation of histone H4R3, ELISA absorbance at 450 nm); assay type: biochemical; conditions: SAM, histone H4 peptide, room temperature 2 hours, 8 points from 10 μM to 0.128 nM
How it was run: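 IC50 was derived from ELISA absorbance at 450 nm, using primary and HRP antibodies against H4R3 methylation on immobilised histone H4 peptide (residues 1-20). Compounds (10 μM to 0.128 nM, 8 points, 1:5) were incubated 2 h at room temperature with the PRMT5-MEP50 complex and SAM, diluted to 5 μg/mL and 2 μM respectively.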

Chain of PRMT5-MEP50 enzyme complex (O14744 2-637): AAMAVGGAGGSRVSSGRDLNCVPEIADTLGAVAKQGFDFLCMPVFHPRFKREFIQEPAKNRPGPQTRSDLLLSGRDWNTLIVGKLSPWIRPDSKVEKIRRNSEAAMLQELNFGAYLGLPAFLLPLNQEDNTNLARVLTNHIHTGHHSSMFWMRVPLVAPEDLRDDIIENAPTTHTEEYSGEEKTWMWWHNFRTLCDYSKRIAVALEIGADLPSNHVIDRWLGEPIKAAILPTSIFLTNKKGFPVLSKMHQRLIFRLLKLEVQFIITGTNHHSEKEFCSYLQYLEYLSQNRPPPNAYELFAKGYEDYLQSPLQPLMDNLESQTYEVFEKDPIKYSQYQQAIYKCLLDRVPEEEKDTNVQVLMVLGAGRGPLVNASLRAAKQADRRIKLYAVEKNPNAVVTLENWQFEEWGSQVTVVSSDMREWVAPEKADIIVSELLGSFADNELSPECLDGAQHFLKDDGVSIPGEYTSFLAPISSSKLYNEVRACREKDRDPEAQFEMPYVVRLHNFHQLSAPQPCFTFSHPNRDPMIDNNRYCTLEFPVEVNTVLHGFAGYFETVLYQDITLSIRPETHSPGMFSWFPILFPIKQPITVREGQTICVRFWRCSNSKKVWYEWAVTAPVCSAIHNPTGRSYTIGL
Chain of PRMT5-MEP50 enzyme complex (Q9BQA1 2-342 partner): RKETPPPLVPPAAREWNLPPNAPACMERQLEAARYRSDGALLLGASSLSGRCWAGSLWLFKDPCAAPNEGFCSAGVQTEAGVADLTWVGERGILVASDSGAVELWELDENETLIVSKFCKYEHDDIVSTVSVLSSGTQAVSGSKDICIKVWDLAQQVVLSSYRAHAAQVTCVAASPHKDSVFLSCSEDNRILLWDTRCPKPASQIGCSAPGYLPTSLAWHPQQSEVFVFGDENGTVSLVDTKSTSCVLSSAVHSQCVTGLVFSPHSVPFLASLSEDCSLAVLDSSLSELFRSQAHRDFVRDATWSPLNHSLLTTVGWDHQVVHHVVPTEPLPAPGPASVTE

SMILES | IC50 [µM]
CCN1CCC(Oc2ccc3c(c2)OC(C)(C)CN(C[C@H](O)CN2CCc4ccccc4C2)C3=O)CC1 [Example 110, 4-[(2R)-3-(3,4-dihydro-1H-isoquinolin-2-yl)-2-hydroxy-propyl]-8-[(1-ethyl-4-piperidyl)oxy]-2,2-dimethyl-3H-1,4-benzoxazepin-5-one] | 0.1 to 1
O=C1c2ccc(OC3CC4CCC(C3)N4CCF)cc2OCCN1C[C@H](O)CN1CCc2ccccc2C1 (some centres unmarked) [Example 215] | 0.1 to 1
O=C1c2ccc(CN3CC4CC3CO4)cc2OCCN1C[C@H](O)CN1CCc2ccccc2C1 (stereo partly drawn) [Example 55, 4-[(2R)-3-(3,4-dihydro-1H-isoquinolin-2-yl)-2-hydroxy-propyl]-8-(2-oxa-5-azabicyclo[2.2.1]heptan-5-ylmethyl)-2,3-dihydro-1,4-benzoxazepin-5-one] | 0.1 to 1
CC1(C)CN(C[C@H](O)CN2CCc3ccccc3C2)C(=O)c2ccc(CN3CCOCC3)nc2O1 [Example 192, 4-[(2R)-3-(3,4-dihydro-1H-isoquinolin-2-yl)-2-hydroxy-propyl]-2,2-dimethyl-8-(morpholinomethyl)-3H-pyrido[3,2-f][1,4]oxazepin-5-one] | 0.1 to 1
CC1(C)CN(C[C@H](O)CN2CCc3ccccc3C2)C(=O)c2ccc(CN3CCN(C4COC4)CC3)cc2O1 [Example 182, 4-[(2R)-3-(3,4-dihydro-1H-isoquinolin-2-yl)-2-hydroxy-propyl]-2,2-dimethyl-8-[[4-(oxetan-3-yl)piperazin-1-yl]methyl]-3H-1,4-benzoxazepin-5-one] | 0.1 to 1
O=C1c2ccc(OCc3ccnc(F)c3F)cc2OCCN1C[C@H](O)CN1CCc2ccccc2C1 [Example 60, 8-[(2,3-difluoro-4-pyridyl)methoxy]-4-[(2R)-3-(3,4-dihydro-1H-isoquinolin-2-yl)-2-hydroxy-propyl]-2,3-dihydro-1,4-benzoxazepin-5-one] | 0.1 to 1
O=C(c1ccc2c(c1)OCCN(C[C@H](O)CN1CCc3ccccc3C1)C2=O)N1CCCCC1 [Example 176, 4-[(2R)-3-(3,4-dihydro-1H-isoquinolin-2-yl)-2-hydroxy-propyl]-8-(piperidine-1-carbonyl)-2,3-dihydro-1,4-benzoxazepin-5-one] | 0.1 to 1
O=C1c2ccc(Cl)nc2OCCN1C[C@H](O)CN1CCc2ccccc2C1 [Example 153, 8-chloro-4-[(2R)-3-(3,4-dihydro-1H-isoquinolin-2-yl)-2-hydroxy-propyl]-2,3-dihydropyrido[3,2-f][1,4]oxazepin-5-one] | 0.1 to 1
CC1(C)CN(C[C@H](O)CN2CCc3ccccc3C2)C(=O)c2ccc(OCc3ccncc3)cc2O1 [Example 113, 4-[(2R)-3-(3,4-dihydro-1H-isoquinolin-2-yl)-2-hydroxy-propyl]-2,2-dimethyl-8-(4-pyridylmethoxy)-3H-1,4-benzoxazepin-5-one] | 0.1 to 1
O=C(c1ccc2c(c1)OCCN(C[C@H](O)CN1CCc3ccccc3C1)C2=O)N1CC2CCCC2C1 (stereo partly drawn) [Example 193, 8-(3,3a,4,5,6,6a-hexahydro-1H-cyclopenta[c]pyrrol-2-carbonyl)-4-[(2R)-3-(3,4-dihydro-1H-isoquinolin-2-yl)-2-hydroxy-propyl]-2,3-dihydro-1,4-benzoxazepin-5-one] | 0.1 to 1
CC1COCCN1C(=O)c1ccc2c(c1)OCCN(C[C@H](O)CN1CCc3ccccc3C1)C2=O (stereo partly drawn) [Example 191, 4-[(2R)-3-(3,4-dihydro-1H-isoquinolin-2-yl)-2-hydroxy-propyl]-8-(3-methylmorpholin-4-carbonyl)-2,3-dihydro-1,4-benzoxazepin-5-one] | 0.1 to 1
O=C1c2ccc(OCC3CCCCC3)cc2OCCN1C[C@H](O)CN1CCc2ccccc2C1 [Example 66, 8-(cyclohexylmethoxy)-4-[(2R)-3-(3,4-dihydro-1H-isoquinolin-2-yl)-2-hydroxy-propyl]-2,3-dihydro-1,4-benzoxazepin-5-one] | 0.1 to 1
O=C(c1ccc2c(c1)OCCN(C[C@H](O)CN1CCc3ccccc3C1)C2=O)N1CCC(F)(F)CC1 [Example 196, 8-(4,4-difluoropiperidine-1-carbonyl)-4-[(2R)-3-(3,4-dihydro-1H-isoquinolin-2-yl)-2-hydroxy-propyl]-2,3-dihydro-1,4-benzoxazepin-5-one] | 0.1 to 1
CN1CCN(C[C@H](O)CN2CCc3ccccc3C2)C(=O)c2ccc(C3=CCC(C(F)(F)F)CC3)cc21 (stereo partly drawn) [Example 119, 4-[(2R)-3-(3,4-dihydro-1H-isoquinolin-2-yl)-2-hydroxy-propyl]-1-methyl-8-[4-(trifluoromethyl)cyclohexen-1-yl]-2,3-dihydro-1,4-benzodiazepin-5-one] | 0.1 to 1
O=C1c2ccc(OCC3CCCCO3)cc2OCCN1C[C@H](O)CN1CCc2ccccc2C1 (stereo partly drawn) [Example 65, 4-[(2R)-3-(3,4-dihydro-1H-isoquinolin-2-yl)-2-hydroxy-propyl]-8-(tetrahydropyran-2-ylmethoxy)-2,3-dihydro-1,4-benzoxazepin-5-one] | 0.1 to 1
N#CN1CCC(Oc2ccc3c(c2)OCCN(C[C@H](O)CN2CCc4ccccc4C2)C3=O)CC1 [Example 166, 4-[[4-[(2R)-3-(3,4-dihydro-1H-isoquinolin-2-yl)-2-hydroxypropyl]-5-oxo-2,3-dihydro-1,4-benzoazepin-8-yl]oxy]piperidine-1-carbonitrile] | 0.1 to 1
CN1CCN(C[C@H](O)CN2CCc3ccccc3C2)C(=O)c2ccc(OC3CCN(C4CCOC4)CC3)cc21 (stereo partly drawn) [Example 128, 4-[(2R)-3-(3,4-dihydro-1H-isoquinolin-2-yl)-2-hydroxy-propyl]-1-methyl-8-[(1-tetrahydrofuran-3-yl-4-piperidyl)oxy]-2,3-dihydro-1,4-benzodiazepin-5-one] | 0.1 to 1
CCN(CC)C(=O)COc1ccc2c(c1)OCCN(C[C@H](O)CN1CCc3ccccc3C1)C2=O [Example 75, 2-[[4-[(2R)-3-(3,4-dihydro-1H-isoquinolin-2-yl)-2-hydroxy-propyl]-5-oxo-2,3-dihydro-1,4-benzoxazepin-8-yl]oxy]-N,N-diethyl-acetamide] | 0.1 to 1

Continued, values first:

IC50 [µM] | SMILES
0.001 to 0.1 | CC(C)(C)OC(=O)N1CCC(Oc2ccc3c(c2)OCCN(C[C@H](O)CN2CCc4ccccc4C2)C3=O)CC1 [Example 77, tert-butyl 4-[[4-[(2R)-3-(3,4-dihydro-1H-isoquinolin-2-yl)-2-hydroxy-propyl]-5-oxo-2,3-dihydro-1,4-benzoxazepin-8-yl]oxy]piperidine-1-carboxylate]
0.001 to 0.1 | CC(O)C#Cc1ccc2c(c1)OCCN(C[C@H](O)CN1CCc3ccccc3C1)C2=O (stereo partly drawn) [Example 228, 4-[(2R)-3-(3,4-dihydro-1H-isoquinolin-2-yl)-2-hydroxy-propyl]-8-(3-hydroxybu-1-tynyl)-2,3-dihydro-1,4-benzoxazepin-5-one]
0.1 to 1 | C[C@@H]1CN(C[C@H](O)CN2CCc3ccccc3C2)C(=O)c2ccc(O[C@H]3CCN(C)C3)cc2O1 [Example 264, (2R)-4-[(2R)-3-(3,4-dihydro-1H-isoquinolin-2-yl)-2-hydroxy-propyl]-2-methyl-8-[(3S)-1-methylpyrrolidin-3-yl]oxy-2,3-dihydro-1,4-benzoxazepin-5-one]
0.1 to 1 | O=C1c2ccc(OCc3cc(Cl)nc(Cl)c3)cc2OCCN1C[C@H](O)CN1CCc2ccccc2C1 [Example 59, 8-[(2,6-dichloro-4-pyridyl)methoxy]-4-[(2R)-3-(3,4-dihydro-1H-isoquinolin-2-yl)-2-hydroxy-propyl]-2,3-dihydro-1,4-benzoxazepin-5-one]
0.1 to 1 | CCN1CC[C@@H](Oc2ccc3c(c2)OCCN(C[C@H](O)CN2CCc4ccccc4C2)C3=O)C1 [Example 99, 4-[(2R)-3-(3,4-dihydro-1H-isoquinolin-2-yl)-2-hydroxy-propyl]-8-[(3R)-1-ethylpyrrolidin-3-yl]oxy-2,3-dihydro-1,4-benzoxazepin-5-one]
0.1 to 1 | CN1CCC(Oc2ccc3c(c2)N(C)CCN(C[C@H](O)CN2CCc4ccccc4C2)C3=O)C1 (stereo partly drawn) [Example 132, 4-[(2R)-3-(3,4-dihydro-1H-isoquinolin-2-yl)-2-hydroxy-propyl]-1-methyl-8-(1-methylpyrrolidin-3-yl)oxy-2,3-dihydro-1,4-benzodiazepin-5-one]
0.001 to 0.1 | COC[C@H]1CCCN1Cc1ccc2c(c1)OCCN(C[C@H](O)CN1CCc3ccccc3C1)C2=O [Example 50, 4-[(2R)-3-(3,4-dihydro-1H-isoquinolin-2-yl)-2-hydroxy-propyl]-8-[[(2R)-2-(methoxymethyl)pyrrolidin-1-yl]methyl]-2,3-dihydro-1,4-benzoxazepin-5-one]
0.001 to 0.1 | O=C1c2ccc(CN3CCC(O)CC3)cc2OCCN1C[C@H](O)CN1CCc2ccccc2C1 [Example 45, 4-[(2R)-3-(3,4-dihydro-1H-isoquinolin-2-yl)-2-hydroxy-propyl]-8-[(4-hydroxy-1-piperidyl)methyl]-2,3-dihydro-1,4-benzoxazepin-5-one]
0.001 to 0.1 | CC1(C)CN(C[C@H](O)CN2CCc3ccccc3C2)C(=O)c2ccc(OC3CN(C=O)C3)cc2O1 [Example 168, 3-[[4-[(2R)-3-(3,4-dihydro-1H-isoquinolin-2-yl)-2-hydroxy-propyl]-2,2-dimethyl-5-oxo-3H-1,4-benzoxazepin-8-yl]oxy]azetidin-1-carbaldehyde]
0.001 to 0.1 | CN(CCF)C1CCC(Oc2ccc3c(c2)OCCN(C[C@H](O)CN2CCc4ccccc4C2)C3=O)CC1 (stereo partly drawn) [Example 199, 4-[(2R)-3-(3,4-dihydro-1H-isoquinolin-2-yl)-2-hydroxypropyl]-8-[4-[2-fluoroethyl(methyl)amino]cyclohexoxy]-2,3-dihydro-1,4-benzoxazepin-5-one]
0.001 to 0.1 | CC1CN(Cc2ccc3c(c2)OCCN(C[C@H](O)CN2CCc4ccccc4C2)C3=O)CCO1 (stereo partly drawn) [Example 30, 4-[(2R)-3-(3,4-dihydro-1H-isoquinolin-2-yl)-2-hydroxy-propyl]-8-[(2-methylmorpholin-4-yl)methyl]-2,3-dihydro-1,4-benzoxazepin-5-one]

From US11111237B2, “Bicyclic compound and use thereof” (SK BIOPHARMACEUTICALS CO., LTD., priority 2019, dated 2021)
